Experimental data reported in patent publication US20100160335A1, “PYRIDAZINONE DERIVATIVE AND PDE INHIBITOR CONTAINING THE SAME AS ACTIVE INGREDIENT” (KYORIN PHARMACEUTICAL CO., LTD., priority 2007, published 2010).

Experiments:
[1] = target: T1, PDE3A catalytic domain (PDE3Acat) (Homo sapiens, UniProt Q14432); assay: Phosphodiesterase inhibitory activity, PDE3 ([3H]cAMP, recombinant enzyme); assay type: biochemical; details: 30° C., 20 minutes, read-out: IC50(μmol/L) PDE3
T1 construct: made in house; host or cells: Sf9 insect cells (baculovirus, Bac-to-Bac / Gateway)

[2] = target: T2, PDE4Bcat (Homo sapiens, UniProt Q07343); assay: Phosphodiesterase inhibitory activity, PDE4 ([3H]cAMP, recombinant enzyme); assay type: biochemical; details: 30° C., 20 minutes, read-out: IC50(μmol/L) PDE4
T2 construct: made in house; host or cells: Sf9 insect cells (baculovirus, Bac-to-Bac / Gateway)

[3] = system: histamine-induced bronchoconstriction in guinea pigs; assay: Histamine-induced bronchoconstriction reaction in guinea pigs; assay type: in vivo; details: guinea pig, measured 30 seconds after administration
Description: Guinea pigs were anesthetized with pentobarbital (30 mg/kg, i.p.). A cannula for intravenous administration was inserted into the left external jugular vein, a cannula for collecting blood and measuring blood pressure was inserted into the right internal carotid artery, and a tracheal cannula was inserted into the trachea. The guinea pigs were maintained on artificial respiration under the conditions of 60 times/min and 10 mL/kg/stroke. The airflow from the side branch of the tracheal cannula was measured by a bronchospasm transducer (Ugo-Basile) and recorded on a computer via Power Lab (ADInstruments Japan). The guinea pigs were immobilized with gallamine (10 mg/kg, i.v.), and histamine (12.5 μg/kg, i.v.) was administered at 10-minute intervals. After the histamine-induced bronchoconstriction became stable, the compound (0.3 mg/kg, i.v.) was administered. The histamine-induced bronchoconstriction reaction was measured 30 seconds after the compound administration to examine the bronchoconstriction inhibitory activity of the compound. The bronchoconstriction was recorded as the airflow value, and the results were represented by the ratio of the maximum value of the histamine- induced airflow 30 seconds after the administration to the maximum value of the airflow before the administration. Also, the test compounds dissolved in DMSO were used. Further, the indications were as follows: inhibition rate≧90% (+++), 90%>inhibition rate≧80% (++), and 80%>inhibition rate≧70% (+). [ ] means the results in the case of 0.1 mg/kg, i.v.

[4] = Cavia porcellus, iv, 0.5 min, compound 0.3 mg/kg, i.v., read-out: Inhibition rate (histamine-induced bronchoconstriction)

T1 sequence (Q14432 674-1093 limits assumed): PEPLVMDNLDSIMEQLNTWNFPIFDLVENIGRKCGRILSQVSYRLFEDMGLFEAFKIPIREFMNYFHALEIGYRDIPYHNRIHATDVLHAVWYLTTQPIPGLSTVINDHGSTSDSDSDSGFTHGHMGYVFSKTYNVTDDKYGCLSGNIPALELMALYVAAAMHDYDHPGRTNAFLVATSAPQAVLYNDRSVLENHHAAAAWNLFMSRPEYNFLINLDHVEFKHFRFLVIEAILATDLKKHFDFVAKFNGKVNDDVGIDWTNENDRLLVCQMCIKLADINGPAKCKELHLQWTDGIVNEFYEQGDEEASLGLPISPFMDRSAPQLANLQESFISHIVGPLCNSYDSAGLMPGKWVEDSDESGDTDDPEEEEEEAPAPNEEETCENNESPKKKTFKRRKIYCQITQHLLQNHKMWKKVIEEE
T2 sequence (Q07343 330-659 limits assumed): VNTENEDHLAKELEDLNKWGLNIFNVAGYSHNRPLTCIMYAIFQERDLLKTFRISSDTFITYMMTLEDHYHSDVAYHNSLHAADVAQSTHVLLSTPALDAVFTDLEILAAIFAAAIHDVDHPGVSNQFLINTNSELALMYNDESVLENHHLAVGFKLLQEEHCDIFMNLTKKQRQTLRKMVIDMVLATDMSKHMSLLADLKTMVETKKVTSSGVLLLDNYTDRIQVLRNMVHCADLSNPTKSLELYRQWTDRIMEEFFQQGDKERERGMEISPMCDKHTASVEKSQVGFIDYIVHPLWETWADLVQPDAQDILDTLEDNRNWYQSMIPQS

SMILES	IC50 [1] [µmol/L]	IC50 [2] [µmol/L]	Inhibition rate (histamine-induced bronchoconstriction) ([3]; compound 0.3 mg/kg, i.v.)	inhibition in vivo at 0.3 mg/kg [3, 4] [%]	inhibition in vivo at 0.1 mg/kg ([3]; Cavia porcellus, iv, 0.5 min, compound 0.1 mg/kg, i.v. (values in [ ]), read-out: Inhibition rate (histamine-induced bronchoconstriction)) [%]
COc1ccc(C2=NN(CCCCOc3ccc(C4=NNC(=O)CC4C)cc3)C(=O)CC2C)c2ccc(C)nc12 (stereo not drawn) [Example 267, 6-(8-Methoxy-2-methylquinolin-5-yl)-5-methyl-2-[4-[4-(4-methyl-6-oxo-1,4,5,6-tetrahydropyridazin-3-yl)phenoxy]butyl]-4,5-dihydro-2H-pyridazin-3-one]	0.1 to 1	< 0.1		≥ 90	
COc1ccc(-c2ccc(=O)n(CCCCOc3ccc(C4=NNC(=O)CC4)cc3F)n2)c2ccc(C)nc12 [Example 272, 2-[4-[2-Fluoro-4-(6-oxo-1,4,5,6-tetrahydropyridazin-3-yl)phenoxy]butyl}-6-(8-methoxy-2-methylquinolin-5-yl)-2H-pyridazin-3-one]	0.1 to 1	< 0.1		70 to 80	
COc1ccc(C2=NN(CCCCOc3ccc(C4=NNC(=O)CC4C)cc3)C(=O)CC2C)c2cc(C(F)(F)F)oc12 (stereo not drawn) [Example 310]	0.1 to 1	< 0.1			
COc1ccc(C2=NN(CCCCOc3ccc(C4=NNC(=O)CC4C)cc3)C(=O)CC2C)c2sc(C(F)(F)F)nc12 (stereo not drawn) [Example 313, 6-(4-Methoxy-2-trifluoromethylbenzothiazol-7-yl)-5-methyl-2-[4-[4-(4-methyl-6-oxo-1,4,5,6-tetrahydropyridazin-3-yl)phenoxy]butyl]-4,5-dihydro-2H-pyridazin-3-one]	0.1 to 1	< 0.1			
COc1ccc(-c2ccc(=O)n(CCCCOc3ccc(C4=NNC(=O)CC4C)cc3)n2)c2ccc(C(F)(F)F)nc12 (stereo not drawn) [Example 321, 6-(8-Methoxy-2-trifluoromethylquinolin-5-yl)-2-[4-[4-(4-methyl-6-oxo-1,4,5,6-tetrahydropyridazin-3-yl)phenoxy]butyl]-2H-pyridazin-3-one]	0.1 to 1	0.1 to 1			
CCc1ccc2c(-c3ccc(=O)n(CCCOc4ccc(C5=NNC(=O)CC5C)c(F)c4F)n3)ccc(OC)c2n1 (stereo not drawn) [Example 325, 6-(2-Ethyl-8-methoxyquinolin-5-yl)-2-[3-[2,3-difluoro-4-(4-methyl-6-oxo-1,4,5,6-tetrahydropyridazin-3-yl)phenoxy]propyl]-2H-pyridazin-3-one]	0.1 to 1	0.1 to 1			
CCc1ccc2c(-c3ccc(=O)n(CCCOc4ccc(C5=NNC(=O)CC5)c(F)c4F)n3)ccc(OC)c2n1 [Example 326, 6-(2-Ethyl-8-methoxyquinolin-5-yl)-2-[3-[2,3-difluoro-4-(6-oxo-1,4,5,6-tetrahydropyridazin-3-yl)phenoxy]propyl]-2H-pyridazin-3-one]	1 to 10	1 to 10			
CCc1ccc2c(-c3ccc(=O)n(CCCOc4ccc(C5=NNC(=O)C5(C)C)c(F)c4F)n3)ccc(OC)c2n1 [Example 327, 6-(2-Ethyl-8-methoxyquinolin-5-yl)-2-[3-[2,3-difluoro-4-(4,4-dimethyl-5-oxo-4,5-dihydro-1H-pyrazol-3-yl)phenoxy]propyl]-2H-pyridazin-3-one]	1 to 10	0.1 to 1			
COc1ccc(-c2ccc(=O)n(CCCCOc3ccc(C4=NNC(=O)C4(C)C)c(F)c3F)n2)c2cc(C(F)(F)F)sc12 [Example 332, 2-[4-[2,3-Difluoro-4-(4,4-dimethyl-5-oxo-4,5-dihydro-1H-pyrazol-3-yl)phenoxy]butyl]-6-(7-methoxy-2-trifluoromethylbenzo[b]thiophen-4-yl)-2H-pyridazin-3-one]	0.1 to 1	1 to 10			
CCc1nc2c(OC)ccc(-c3ccc(=O)n(CCCCOc4ccc(C5=NNC(=O)CC5)c(F)c4F)n3)c2o1 [Example 333, 6-(2-Ethyl-4-methoxybenzooxazol-7-yl)-2-[4-[2,3-difluoro-4-(6-oxo-1,4,5,6-tetrahydropyridazin-3-yl)phenoxy]butyl]-2H-pyridazin-3-one]	< 0.1	0.1 to 1			
CCc1nc2c(OC)ccc(-c3ccc(=O)n(CCCCOc4ccc(C5=NNC(=O)CC5C)c(F)c4F)n3)c2o1 (stereo not drawn) [Example 334, 6-(2-Ethyl-4-methoxybenzooxazol-7-yl)-2-[4-[2,3-difluoro-4-(4-methyl-6-oxo-1,4,5,6-tetrahydropyridazin-3-yl)phenoxy]butyl]-2H-pyridazin-3-one]	< 0.1	0.1 to 1			
CCc1nc2c(OC)ccc(-c3ccc(=O)n(CCCCOc4ccc(C5=NNC(=O)C5(C)C)c(F)c4F)n3)c2o1 [Example 335, 6-(2-Ethyl-4-methoxybenzooxazol-7-yl)-2-[4-[2,3-difluoro-4-(4,4-dimethyl-5-oxo-4,5-dihydro-1H-pyrazol-3-yl)phenoxy]butyl]-2H-pyridazin-3-one]	0.1 to 1	0.1 to 1			
COc1ccc(-c2ccc(=O)n(CCCCOc3ccc(C4=NNC(=O)CC4C)c(F)c3F)n2)n2cc(C(F)(F)F)nc12 (stereo not drawn) [Example 336, 2-[4-[2,3-Difluoro-4-(4-methyl-6-oxo-1,4,5,6-tetrahydropyridazin-3-yl)phenoxy]butyl]-6-(8-methoxy-2-trifluoromethylimidazo[1,2-a]pyridin-5-yl)-2H-pyridazin-3-one]	< 0.1	0.1 to 1			
COc1ccc(-c2ccc(=O)n(CCCCOc3ccc(C4=NNC(=O)CC4)c(F)c3F)n2)n2cc(C(F)(F)F)nc12 [Example 337, 2-[4-[2,3-Difluoro-4-(6-oxo-1,4,5,6-tetrahydropyridazin-3-yl)phenoxy]butyl]-6-(8-methoxy-2-trifluoromethylimidazo[1,2-a]pyridin-5-yl)-2H-pyridazin-3-one]	0.1 to 1	0.1 to 1			
COc1ccc(-c2ccc(=O)n(CCCCOc3ccc(C4=NNC(=O)C4(C)C)c(F)c3F)n2)n2cc(C(F)(F)F)nc12 [Example 338, 2-[4-[2,3-Difluoro-4-(4,4-dimethyl-5-oxo-4,5-dihydro-1H-pyrazol-3-yl)phenoxy]butyl]-6-(8-methoxy-2-trifluoromethylimidazo[1,2-a]pyridin-5-yl)-2H-pyridazin-3-one]	0.1 to 1	0.1 to 1			

More lines, main results first:

IC50 [1] [µmol/L]	IC50 [2] [µmol/L]	SMILES	Inhibition rate (histamine-induced bronchoconstriction) ([3]; compound 0.3 mg/kg, i.v.)	inhibition in vivo at 0.3 mg/kg [3, 4] [%]	inhibition in vivo at 0.1 mg/kg ([3]; Cavia porcellus, iv, 0.5 min, compound 0.1 mg/kg, i.v. (values in [ ]), read-out: Inhibition rate (histamine-induced bronchoconstriction)) [%]
< 0.1	0.1 to 1	CCc1ccc2c(C3=NN(CCCCOc4ccc(C5=NNC(=O)CC5C)cc4)C(=O)CC3C)ccc(OC)c2n1 (single isomer, unassigned) [Example 342, 6-(2-Ethyl-8-methoxyquinolin-5-yl)-5-methyl-2-[4-[4-(4-methyl-6-oxo-1,4,5,6-tetrahydropyridazin-3-yl)phenoxy]butyl]-4,5-dihydro-2H-pyridazin-3-one]	+++ (inhibition rate≧90% (+++))		
< 0.1	0.1 to 1	COc1ccc(C2=NN(CCCCOc3ccc(C4=NNC(=O)CC4C)cc3)C(=O)CC2C)c2ccc(C(C)C)nc12 (stereo not drawn) [Example 269, 6-(8-Methoxy-2-isopropylquinolin-5-yl)-5-methyl-2-[4-[4-(4-methyl-6-oxo-1,4,5,6-tetrahydropyridazin-3-yl)phenoxy]butyl]-4,5-dihydro-2H-pyridazin-3-one]			80 to 90
< 0.1	< 0.1	COc1ccc(-c2ccc(=O)n(CCCCOc3ccc(C4=NNC(=O)C4(C)C)c(F)c3F)n2)c2sc(C(F)(F)F)nc12 [Example 309, 2-[4-[2,3-Difluoro-4-(4,4-dimethyl-5-oxo-4,5-dihydro-1H-pyrazol-3-yl)phenoxy]butyl]-6-(4-methoxy-2-trifluoromethylbenzothiazol-7-yl)-2H-pyridazin-3-one]			
< 0.1	1 to 10	COc1ccc(C2=NN(CCCCOc3ccc(C4=NNC(=O)CC4C)cc3)C(=O)CC2C)c2cc(C(F)(F)F)sc12 (stereo not drawn) [Example 311]			
< 0.1	0.1 to 1	CCc1ccc2c(-c3ccc(=O)n(CCOc4ccc(C5=NNC(=O)CC5C)c(F)c4F)n3)ccc(OC)c2n1 (stereo not drawn) [Example 324, 6-(2-Ethyl-8-methoxyquinolin-5-yl)-2-[2-[2,3-difluoro-4-(4-methyl-6-oxo-1,4,5,6-tetrahydropyridazin-3-yl)phenoxy]ethyl]-2H-pyridazin-3-one]			
< 0.1	1 to 10	COc1ccc(-c2ccc(=O)n(CCCCOc3ccc(C4=NNC(=O)CC4C)c(F)c3F)n2)c2cc(C(F)(F)F)sc12 (stereo not drawn) [Example 330, 2-[4-[2,3-Difluoro-4-(4-methyl-6-oxo-1,4,5,6-tetrahydropyridazin-3-yl)phenoxy]butyl]-6-(7-methoxy-2-trifluoromethylbenzo[b]thiophen-4-yl)-2H-pyridazin-3-one]			
< 0.1	1 to 10	COc1ccc(-c2ccc(=O)n(CCCCOc3ccc(C4=NNC(=O)CC4)c(F)c3F)n2)c2cc(C(F)(F)F)sc12 [Example 331, 2-[4-[2,3-Difluoro-4-(6-oxo-1,4,5,6-tetrahydropyridazin-3-yl)phenoxy]butyl]-6-(7-methoxy-2-trifluoromethylbenzo[b]thiophen-4-yl)-2H-pyridazin-3-one]			
